Read-outs that look alike come from different tables or passages of the source. Square brackets hold non-standard residues; d marks the D form. Peptide text beside a SMILES is read from it. * marks the point of attachment. Biotin = O=C1N[C@H]2[C@H](CS[C@H]2CCCCC(=O)*)N1
Tests used:
[1] = tested on: A. baumannii; assay: A. baumannii lung infection in mice, cell counts in lungs; format: in vivo, C57B1/6 mice
Description: Groups of C57B1/6 mice that have been ear-tagged for identification are used. Freshly-prepared inocula of A. baumannii are prepared from cultures of A. baumannii passaged four times through mice, and cultures are grown with agitation at 37° C. in Nutrient broth to an OD600 value of approximately 0.3 units. Cells are collected by centrifugation at room temperature for 20 mins (5,500 rpm using a GA-10 rotor) and resuspended in 10 ml sterile PBS at room temperature. This wash is repeated once. The cell pellet is then resuspended in 0.5 ml PBS to an approximate concentration of 2.5×10^9 c.f.u./ml. Animals are inoculated intranasally 40 μl inoculum (approximately 1×10^8 c.f.u.) using a sterile 200 μl capacity pipette tip having approximately 3 mm removed from the end. The precise time of inoculation is recorded for each animal. Peptides are administered intravenously e.g., after 3 hr, in 200 μl aliquots of a 200 μM peptide solution in PBS.
At 5.5 hr post-inoculation (taking into account staggered inoculation times), both lung lobes are removed from the animals, homogenised in 0.9 ml PBS and plated on MHB plates at 1×10^−3 dilution, 1×10^−4 dilution and 1×10^−5 dilution in PBS. Following incubation periods sufficient to grow colonies, cells are counted.

[2] = tested on: human RBC; assay: Hemolysis of RBC; format: cell-based
Description: Varying amounts of peptide were incubated with the washed RBC for one hour at room temperature. Intact cells were pelleted by gentle centrifugation, and hemolysis of each sample was determined by absorption measurement at 450 nm. A positive control sample consisted of RBC lysed by the addition of 0.1% Triton, for which hemolysis was also determined by absorption measurement at 450 nm. Percentages of lysed RBC incubated with peptide were then calculated by the ratio of absorbances at 450 nm for the sample relative to the absorbance at 450 nm of the positive control sample. The MHC10 value was calculated as the minimum peptide concentration to induce 10% cell lysis.

[3] = tested on: Jurkat cells; assay: Cytotoxicity against Jurkat cells (CellTiter Blue); format: cell-based, human
Description: (§1) The cytotoxicities of selected peptides against human T-lymphocytes, in particular Jurkat cells, was determined by growing 100 uL Jurkat cells in RPMI (approx. 5×10^5 cells/ml density) overnight at 37° C. under 5% CO2 atmosphere, in microtiter plate wells, in the presence and absence of peptides. Control reactions either lacked peptide (negative cytotoxicity control), or contained a buffer to completely lyse Jurkat cells (positive cytotoxicity control). The viabilities of cells were then determined by addition of 20 uL CellTiter Blue dye (Promega) to each well, and incubation of cells for a further 3 hrs at 37° C. Fluorescence values were measured for 1 sec at 540 nm/615 nm, and expressed relative to fluorescence values for negative and positive cytotoxicity control samples. Comparison with a fully lysed control allowed the calculation of a percentage killing for each peptide concentration. The MCC10 value was calculated as the minimum peptide concentration required to induce 10% cytotoxicity.

[4] = Cytotoxicity against Jurkat cells (CellTiter Blue); format: cell-based, human; conditions: human
Description: as §1

[5] = tested on: A. baumannii; format: cell-based
Method in brief: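 Laboratory strains and 50 clinical isolates of A. baumannii were tested by CLSI broth microdilution, with serially diluted peptide (0.1-64 μg) and about 1×10^5 C.F.U. per well, incubated aerobically overnight at 35±2° C. MIC was read visually. MBC came from subculturing clear wells, as ≥99.9% inoculum reduction.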

[6] = tested on: A. baumannii ATCC 19606, Acinetobacter spp. ATCC 17903, Acinetobacter spp. ATCC 19004, E. coli BL21, S. aureus, S. typhimurium AroA, P. aeruginosa, P. …; assay: Antibacterial spectrum over the serial dilution panel (Table 6); format: cell-based; conditions: summary of Table 6
Method in brief: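 Growth inhibition in liquid culture: freshly inoculated strains exposed to roughly 5–10 μM peptide, 5-6 h shaking at 37° C. Absorbance at 595 nm measured growth, with 0.1% acetonitrile vehicle as control.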

[7] = tested on: A. baumannii cultures; assay: Time taken to exert cytotoxic effect (killing time); format: cell-based
Description: To determine the time killing times for bactericidal peptides, A. baumannii cultures were exposed to different concentrations of peptides for predetermined time periods, and the numbers of bacteria surviving at the end of each time period were determined. Peptides were classified as “Fast”, “Intermediate” or “Slow” according to whether they exerted their cytotoxic effect in less than 30 mins, or between 30-60 mins, or between […] and 240 mins.

[8] = tested on: A. baumannii ATCC Accession No. 19606; format: cell-based; conditions: A. baumannii ATCC 19606
[9] = tested on: Acinetobacter spp. ATCC 17903; format: cell-based
[10] = tested on: S. aureus; format: cell-based
[11] = tested on: Acinetobacter spp. ATCC 19004; format: cell-based
[12] = tested on: Escherichia coli strain BL21; format: cell-based; conditions: E. coli BL21
[13] = tested on: P. aeruginosa; format: cell-based
[14] = tested on: S. typhimurium strain AroA; format: cell-based

CC[C@@H](C)[C@@H](NC(=O)[C@@H](CCCNC(=N)N)NC(=O)[C@@H](C)NC(=O)[C@@H](CC(C)C)NC(=O)[C@@H](CCCNC(=N)N)NC(=O)[C@@H](CCCNC(=N)N)NC(=O)CCCC[C@@H]1SC[C@@H]2NC(=O)N[C@@H]21)C(=O)N[C@H](CCCCN)C(=O)N[C@H](CO)C(=O)N[C@H](CC(C)C)C(=O)N[C@H](CC(C)C)C(=O)N[C@H](CCC(N)=O)C(=O)N[C@H](CCCNC(=N)N)C(=O)N[C@H](CS)C(=O)N[C@@H](C(=O)N[C@H](C)C(=O)N[C@H](Cc1ccccc1)C(=O)N[C@H](Cc1ccccc1)C(=O)N[C@H](CO)C(=O)N[C@H](Cc1c[nH]cn1)C(=O)N[C@H](CC(N)=O)C(=O)N[C@H](Cc1ccc(O)cc1)C(=O)N[C@H](CCCNC(=N)N)C(=O)N[C@@H](C(=O)O)C(C)C)C(C)C [Ac13r] (Biotin-[dR][dR][dL][dA][dR][dI][dK][dS][dL][dL][dQ][dR][dC][dV][dA][dF][dF][dS][dH][dN][dY][dR][dV]-OH; N-terminus and C-terminus assumed)
trend to reduce A. baumannii infection in the lung [1]: strong trend | Cell counts in lungs post-treatment, Mouse 2 ([1]; as E41, Mouse 2): 2.6 × 10^5 | Cell counts in lungs post-treatment, Mouse 3 ([1]; as E41, Mouse 3): 9.0 × 10^4 | Cell counts in lungs post-treatment, Mouse 1 ([1]; peptide i.v. after intranasal A. baumannii, lungs at 5.5 hr post-inoculation, Mouse 1): 1 × 10^4 | MHC10 [2]: ~15 µM | MCC10 [3]: 30 µM | cytotoxicity at 12.5 μM [4]: 0% | cytotoxicity at 25 μM [4]: 3% | cytotoxicity at 50 μM [4]: 39% | MIC (μM) for amidated peptide [5]: 1.25 to 2.5 µM | MIC (μM) for non-amidated Peptide [5]: 1.25 to 2.5 µM

CC[C@H](C)[C@H](NC(=O)[C@H](Cc1c[nH]c2ccccc12)NC(=O)[C@H](CC(=O)O)NC(=O)[C@H](CO)NC(=O)[C@H](CS)NC(=O)[C@H](CC(C)C)NC(=O)[C@H](CC(C)C)NC(=O)[C@H](C)NC(=O)[C@H](CS)NC(=O)[C@H](CCCNC(=N)N)NC(=O)[C@H](CC(C)C)NC(=O)[C@H](CCCNC(=N)N)NC(=O)[C@H](C)NC(=O)CNC(=O)[C@H](CCCNC(=N)N)NC(=O)[C@@H](NC(=O)CCCC[C@@H]1SC[C@@H]2NC(=O)N[C@@H]21)C(C)C)C(=O)N[C@H](C(=O)N[C@@H](CO)C(=O)N[C@@H](CS)C(=O)N[C@@H](CCCNC(=N)N)C(=O)N[C@@H](CC(C)C)C(=O)N[C@@H](CC(C)C)C(=O)NCC(=O)O)C(C)C [Ac38] (Biotin-VRGARLRCALLCSDWIVSCRLLG-OH; N-terminus and C-terminus assumed)
selectively inhibited growth of A. baumannii ATCC Accession No. 19606, Acinetobacter spp. ATCC 17903, Acinetobacter spp. ATCC 19004, and S. aureus [6]: selectively inhibited growth | MHC10 [2]: >100 µM | Percent hemolysis at 5 μM peptide ([2]; red cells of human, 5): 0.8% | Percent hemolysis at 10 μM peptide ([2]; red cells of human, 10): 3.8% | Percent hemolysis at 20 μM peptide ([2]; red cells of human, 20): 4.8% | Percent hemolysis at 40 μM peptide ([2]; red cells of human, 40): 11.9% | Percent hemolysis at 60 μM peptide ([2]; red cells of human, 60): 19.5% | Percent hemolysis at 80 μM peptide ([2]; red cells of human, 80): 26.9% | Percent hemolysis at 100 μM peptide ([2]; red cells of human, 1 h, 100): 27.9% | cytotoxicity at 12.5 μM [4]: 0% | cytotoxicity at 25 μM [4]: 0% | cytotoxicity at 50 μM [4]: 0% | MIC (μM) for amidated peptide [5]: 15 to 20 µM | MIC (μM) for non-amidated Peptide [5]: 40 µM | bactericidal or bacteriostatic against A. baumannii [5]: bactericidal | killing time classification [7]: RAPID

CC(C)C[C@H](NC(=O)CNC(=O)[C@@H]1CCCN1C(=O)[C@H](Cc1c[nH]c2ccccc12)NC(=O)[C@H](CCCCN)NC(=O)[C@H](CCCCN)NC(=O)[C@H](CCCNC(=N)N)NC(=O)[C@H](C)NC(=O)[C@H](CCC(N)=O)NC(=O)[C@@H]1CCCN1C(=O)[C@H](CO)NC(=O)[C@@H](NC(=O)[C@H](CCCCN)NC(=O)[C@H](CC(C)C)NC(=O)[C@H](CCCCN)NC(=O)[C@@H](NC(=O)[C@H](CC(C)C)NC(=O)[C@H](Cc1c[nH]cn1)NC(=O)[C@H](CC(=O)O)NC(=O)CN)C(C)C)[C@@H](C)O)C(=O)NCC(=O)N[C@@H](CC(N)=O)C(=O)N[C@@H](CCC(=O)O)C(=O)O [Ac99] (H-GDHLVKLKTSPQARKKWPGLGNE-OH; N-terminus and C-terminus assumed)
selectively inhibited growth of Acinetobacter spp. ATCC 19004, and S. aureus [6]: selectively inhibited growth | % inhibition of bacterial growth by peptide ([8]; 12.5 μM peptide): 9% | % inhibition of bacterial growth by peptide ([8]; 15 μM peptide): 20% | % inhibition of bacterial growth by peptide ([8]; 17.5 μM peptide): 14% | % inhibition of bacterial growth by peptide ([8]; 20 μM peptide): 27% | % inhibition of bacterial growth by peptide ([9]; 12.5 μM peptide): 0% | % inhibition of bacterial growth by peptide ([9]; 15 μM peptide): 1% | % inhibition of bacterial growth by peptide ([9]; 17.5 μM peptide): 1% | % inhibition of bacterial growth by peptide ([9]; 20 μM peptide): 32% | % inhibition of bacterial growth by peptide ([10]; 12.5 μM peptide): 60% | % inhibition of bacterial growth by peptide ([10]; 15 μM peptide): 80% | % inhibition of bacterial growth by peptide ([10]; 17.5 μM peptide): 99% | % inhibition of bacterial growth by peptide ([10]; 20 μM peptide): 100% | % inhibition of bacterial growth by peptide ([11]; 12.5 μM peptide): 0% | % inhibition of bacterial growth by peptide ([11]; 15 μM peptide): 1% | % inhibition of bacterial growth by peptide ([11]; 17.5 μM peptide): 7% | % inhibition of bacterial growth by peptide ([11]; 20 μM peptide): 92% | % inhibition of bacterial growth by peptide ([12]; 12.5 μM peptide): 16% | % inhibition of bacterial growth by peptide ([12]; 15 μM peptide): 23% | % inhibition of bacterial growth by peptide ([12]; 17.5 μM peptide): 17% | % inhibition of bacterial growth by peptide ([12]; 20 μM peptide): 27% | % inhibition of bacterial growth by peptide ([13]; 12.5 μM peptide): 8% | % inhibition of bacterial growth by peptide ([13]; 15 μM peptide): 21% | % inhibition of bacterial growth by peptide ([13]; 17.5 μM peptide): 0% | % inhibition of bacterial growth by peptide ([13]; 20 μM peptide): 0% | % inhibition of bacterial growth by peptide ([14]; 12.5 μM peptide): 0% | % inhibition of bacterial growth by peptide ([14]; 15 μM peptide): 5% | % inhibition of bacterial growth by peptide ([14]; 17.5 μM peptide): 0% | % inhibition of bacterial growth by peptide ([14]; 20 μM peptide): 4%

Reference: patent publication US20110262508A1, “ANTIMICROBIAL COMPOSITIONS, FORMULATIONS AND USES THEREOF” (priority 2007, published 2011)
